Converted amounts (≈) assume the structure as drawn. The source made the active and inactive calls. The rule behind the calls is not given here.
What was measured:
Liver = assay: (§1) Half life in mouse liver microsomes by LC-MS/MS analysis; format: ADME; conditions: microsomes
[1] = Metabolic stability in mouse liver microsomes assessed as compound remaining after 45 mins by LC-MS/MS analysis; format: ADME; conditions: read-out: Stability
[2] = Metabolic stability in mouse liver microsomes assessed as compound remaining after 30 mins by LC-MS/MS analysis; format: ADME; conditions: read-out: Stability
[3] = Metabolic stability in mouse liver microsomes assessed as compound remaining after 15 mins by LC-MS/MS analysis; format: ADME; conditions: read-out: Stability
[4] = Metabolic stability in mouse liver microsomes assessed as compound remaining after 5 mins by LC-MS/MS analysis; format: ADME; conditions: for Stability: microsomes, 5 min; for remaining at 5 min: liver microsomes, read-out: Stability
[5] = Growth inhibition of human HT1080 cells after 48 hrs by alamar blue assay; format: functional; conditions: HT-1080, 48 h
DRD = assay: Growth inhibition of human RAS-G12V overexpressing DRD cells after 48 hrs by alamar blue assay; format: functional, cell-based
[6] = Selectivity ratio of IC50 for human BJeH cells to IC50 for human RAS-G12V overexpressing BJeLR cells; format: ADME, cell-based; conditions: BJeH cells and RAS-G12V overexpressing BJeLR cells, read-out: Ratio IC50
[7] = Growth inhibition of human RAS-G12V overexpressing BJeLR cells after 48 hrs by alamar blue assay; format: functional, cell-based
[8] = Solubility of compound in water; format: physicochemical; conditions: buffer
[9] = as §1; format: ADME; conditions: liver microsomes
[10] = Growth inhibition of human RAS-G12V overexpressing BJeLR cells; format: functional
[11] = target: T1, Cystine/glutamate transporter (Homo sapiens, UniProt Q9UPY5); assay: Inhibition of Xct in human CCF-STTG1 cells assessed as glutamate release after 2 hrs by fluorometry; format: cell-based
T1 sequence (Q9UPY5 whole entry): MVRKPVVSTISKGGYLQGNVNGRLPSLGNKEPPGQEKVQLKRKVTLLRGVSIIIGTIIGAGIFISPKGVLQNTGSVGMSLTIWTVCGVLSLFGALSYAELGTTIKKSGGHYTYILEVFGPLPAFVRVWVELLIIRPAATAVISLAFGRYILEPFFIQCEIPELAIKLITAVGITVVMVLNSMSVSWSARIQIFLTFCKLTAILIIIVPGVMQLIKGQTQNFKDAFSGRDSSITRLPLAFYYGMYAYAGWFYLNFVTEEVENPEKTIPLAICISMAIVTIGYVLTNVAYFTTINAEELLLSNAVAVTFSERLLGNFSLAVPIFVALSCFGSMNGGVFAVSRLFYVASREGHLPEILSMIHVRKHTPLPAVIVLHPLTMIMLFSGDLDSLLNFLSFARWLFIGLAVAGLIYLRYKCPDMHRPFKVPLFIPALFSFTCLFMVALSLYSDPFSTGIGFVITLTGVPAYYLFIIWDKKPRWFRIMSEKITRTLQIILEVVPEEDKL

Plasma = assay: Stability in mouse plasma at 500 ng/ml measured upto 120 mins; format: ADME, cell-free; conditions: 2 h

Structure (SMILES): CC(=O)c1ccc(OC(C)C)c(-n2c(CN3CCN(C(=O)COc4ccc(Cl)cc4)CC3)nc3ccccc3c2=O)c1
- t1/2 (Liver): 3.8 min
- remaining at 0.75 h [1]: 0%
- remaining at 0.5 h [2]: 0%
- remaining at […] [3]: 0%
- Stability [4]: 0.5%
- GI50 [5]: 59 nM
- inhibition (DRD): Active

Structure (SMILES): C=CCN1CCN(CC(=O)c2ccc(OC(C)C)c(-n3c(CN4CCN(C(=O)COc5ccc(Cl)cc5)CC4)nc4ccccc4c3=O)c2)CC1
- remaining at 0.75 h [1]: 0%
- remaining at 0.5 h [2]: 0%
- remaining at […] [3]: 2.4%
- remaining at 5 min [4]: 37.3%
- selectivity ratio [6]: 1.5
- IC50 [7]: 195 nM
- inhibition (DRD): inactive

Structure (SMILES): CCOc1ccccc1-n1c(C(C)N2CCN(C(=O)COc3ccc(Cl)cc3)CC2)nc2ccccc2c1=O (stereo unspecified) [ERASTIN]
- solubility [8]: 0.09 mM (≈ 49.2 µg/mL)
- half-life [9]: < 5 min
- inhibition (DRD): Active

Structure (SMILES): CC(C)Oc1ccc(C=O)cc1-n1c(CN2CCN(C(=O)COc3ccc(Cl)cc3)CC2)nc2ccccc2c1=O
- GI50 [10]: 8 nM
- solubility [8]: 0.08 mM (≈ 46 µg/mL)
- selectivity ratio [6]: 15
- IC50 [7]: 8 nM

Structure (SMILES): CC(C)Oc1ccc(CN2CCNCC2)cc1-n1c(CN2CCN(C(=O)COc3ccc(Cl)cc3)CC2)nc2ccccc2c1=O
- solubility [8]: 1.4 mM (≈ 903 µg/mL)
- half-life [9]: 55.3 min
- remaining at 0.75 h [1]: 59.4%
- remaining at 0.5 h [2]: 66.6%
- remaining at […] [3]: 79.2%
- GI50 [5]: 1200 nM
- selectivity ratio [6]: 3
- IC50 [7]: 300 nM
- IC50 [11]: 800 nM

Structure (SMILES): CC(C)Oc1ccc(C(=O)Cn2ccnc2)cc1-n1c(CN2CCN(C(=O)COc3ccc(Cl)cc3)CC2)nc2ccccc2c1=O
- half-life [9]: 78.5 min
- Stability (Plasma): Stable
- remaining at 0.75 h [1]: 64.1%
- remaining at 0.5 h [2]: 75.4%
- remaining at […] [3]: 82.9%
- remaining at 5 min [4]: 89.3%
- GI50 [5]: 314 nM
- selectivity ratio [6]: 42
- IC50 [7]: 3 nM
- inhibition (DRD): Active

Structure (SMILES): CC(C)Oc1ccc(C(=O)CN2CCN(C)CC2)cc1-n1c(CN2CCN(C(=O)COc3ccc(Cl)cc3)CC2)nc2ccccc2c1=O
- selectivity ratio [6]: 1.9
- IC50 [7]: 474 nM
- inhibition (DRD): inactive

Structure (SMILES): COc1ccc(CN2CCN(CC(=O)c3ccc(OC(C)C)c(-n4c(CN5CCN(C(=O)COc6ccc(Cl)cc6)CC5)nc5ccccc5c4=O)c3)CC2)cc1
- remaining at 0.75 h [1]: 0.2%
- remaining at 0.5 h [2]: 0.3%
- remaining at […] [3]: 2.8%
- remaining at 5 min [4]: 29.7%
- selectivity ratio [6]: 13
- IC50 [7]: 13 nM
- inhibition (DRD): Active

Structure (SMILES): CC(C)Oc1ccc(C(=O)CN2CCNCC2)cc1-n1c(CN2CCN(C(=O)COc3ccc(Cl)cc3)CC2)nc2ccccc2c1=O
- Stability (Plasma): Stable
- remaining at 0.75 h [1]: 76.9%
- remaining at 0.5 h [2]: 76.2%
- remaining at […] [3]: 94.7%
- remaining at 5 min [4]: 87.4%
- GI50 [5]: 550 nM

Structure (SMILES): CC(C)Oc1ccc(C(=O)C(F)(F)F)cc1-n1c(CN2CCN(C(=O)COc3ccc(Cl)cc3)CC2)nc2ccccc2c1=O
- selectivity ratio [6]: 8
- IC50 [7]: 210 nM

Structure (SMILES): CC(C)Oc1ccc(C(=O)CN2CCOCC2)cc1-n1c(CN2CCN(C(=O)COc3ccc(Cl)cc3)CC2)nc2ccccc2c1=O
- remaining at 0.75 h [1]: 21.2%
- remaining at 0.5 h [2]: 30.6%
- remaining at […] [3]: 53.2%
- remaining at 5 min [4]: 83.8%
- selectivity ratio [6]: 5
- IC50 [7]: 427 nM
- inhibition (DRD): Active

Structure (SMILES): CC(C)Oc1ccc(C(=O)CF)cc1-n1c(CN2CCN(C(=O)COc3ccc(Cl)cc3)CC2)nc2ccccc2c1=O
- t1/2 (Liver): 4.7 min
- remaining at 0.75 h [1]: 0%
- remaining at 0.5 h [2]: 0%
- remaining at […] [3]: 0%
- Stability [4]: 15.5%
- inhibition (DRD): Active

— ChEMBL document CHEMBL3627707, “Incorporation of metabolically stable ketones into a small molecule probe to increase potency and water solubility” (Bioorg Med Chem Lett, 2015)
